According to patent US20260327628A1, “AN RNA APTAMER THAT BINDS TO ASP7967 OR AN ANALOGUE THEREOF” (priority 2022, published 2026):
“Also recorded” adds a separate entry of the source. Like-named read-outs stand apart in the source and are kept apart here.

Assays:
[1] = Pharmacokinetics of ASP7967 in mice after oral administration (LC-MS/MS); type: in vivo, mice (BALB/c cAJc1); settings: for Tmax: first sampling time point
Protocol: FIG. 10 Pharmacokinetics of ASP7967 in mice after oral administration. After oral administration at 100 mg kg^−1 to mice (BALB/c cAJc1), plasma and liver concentrations of ASP7967 were measured using liquid chromatography-tandem mass spectrometry (LC-MS/MS). ASP7967 concentrations in both plasma and liver reached maxima within the first sampling time point of 1 h and then decreased over time.

AC17-4 RNA aptamer = experiment: Affinity measurement by ITC, AC17-4; type: binding; settings: 37 °C
Protocol: ITC experiments were carried out as described previously^26 with some modifications. Template DNA for in vitro transcription was prepared by primer extension using Q5 High-Fidelity DNA Polymerase. AC17-4 RNA aptamer (5′-[…]-3′ (SEQ ID NO: 50)) was prepared using HiScribe T7 High Yield RNA Synthesis Kit (NEB) according to the manufacturer's instructions. The transcription product (100 μl) was treated with 2 U TURBO DNase at 37° C. for 30 min. The RNA was precipitated with ammonium acetate and ethanol and dissolved in water. The solution was further extracted with phenol-chloroform and ethanol precipitated. The RNA was purified by denaturing polyacrylamide gel electrophoresis (PAGE) and the main band was extracted from the gel with TE buffer (10 mM Tris-HCl, pH 7.0, 0.1 mM EDTA). […] RNA concentration was determined by absorbance at 260 nm according to OligoCalc. […]
Titration was performed at 37° C. using MicroCal PEAQ-ITC (Malvern). […] Raw data were analysed by MicroCal PEAQ-ITC analysis software ver. […]
Conventional SELEX requires immobilization of the target molecule on solid phase on which an RNA pool containing randomized sequences are applied. […] The sequences enriched during the SELEX experiment were analyzed by high-throughput (Illumina) sequencing. […]

[2] = tested on: potassium channel Kv12.2 encoded by the Kcnh3/BEC1 gene; settings: cited from earlier work
[3] = in vivo; cited from earlier work

Molecule Fc1ccc(Nc2nc(NCc3ncccn3)nc(Nc3ccc(F)cc3)n2)cc1 [ASP7967] has a Tmax ([1]; mouse, liver, 100 mg kg^−1 oral, read-out: time of maximum liver concentration) of no more than 1 h, a Kp ([1]; mouse, liver, 100 mg kg^−1 oral, read-out: concentration ratio of liver to plasma) of 2.7 to 30.6 and a Tmax ([1]; mouse, plasma, 100 mg kg^−1 oral, read-out: time of maximum plasma concentration) of no more than 1 h. The “concentration in the liver / distribution (in words)” value ([1]; oral administration) was “high concentration; also recorded: distributed to the liver”.
In the case of Fc1ccc(Nc2nc(NCc3ncccn3)nc(Nc3ccccc3)n2)cc1 [ASP2905, reference compound], the Kd (AC17-4 RNA aptamer) is given as 0.048 µM, the “inhibition of Kv12.2 (KCNH3) in words” value [2] is given as “potent and selective inhibitor; also recorded: known inhibitor” and the antipsychotic activities [3] is given as “has antipsychotic activities”.
